Results published in patent US9487462B2, “Inhibitors of matrix metalloproteinases” (PharmaHungary 2000 Kft., priority 2010, dated 2016).
Where a name gives a salt, the structure may show the parent alone. Read-outs that look alike come from different tables or passages of the source.

What was measured:
[1] = Cytotoxicity, alamarBlue viability, HCT116; format: cell-based; conditions: human, HCT116 colon tumor cells, 48 hours incubation, read-out: HCT116 LC50
Experimental: (§1) Beside the inhibitory effect on MMPs we tested the cytotoxicity of the selected compounds. These measurements were done in parallel on two cell lines. One of them was the healthy human fibroblast cell line MRC-5 while the other was the human colon tumor cell line HCT116. The viability of the cells was monitored using alamarBlue. This dye is reduced by the cells resulting in an increased fluorescent signal which is proportional to the number of living cells. Cells were incubated with the dilutions of the tested compounds for 48 hours then alamarBlue was added to them for 4 hours. After that the fluorescence changes were detected using excitation at 540 nm and emission wavelength of 590 nm by a Wallac 1420 Microplate Reader. IC50 values were determined for the compounds using six concentrations and duplicate points for each concentration.

MMP-2 = MMP-2 (Rattus norvegicus (Rat), UniProt P33436); test: In vitro zymography assay (gelatin), MMP-2; format: biochemical
Experimental: (§2) MMP-2 and MMP-9 enzymes were isolated from rat hearts and from rat spleen while human, recombinant MMP-1 and MMP-13 enzymes used were commercial. MMP-2, -9, -13 enzymes were separated by electrophoresis during non-reducing conditions on 8% SDS-polyacrylamide gels copolymerized with 2 mg/ml gelatin from porcine skin (Sigma Aldrich) while MMP-1 was separated under the same conditions on 8% SDS-polyacrylamide gels copolymerized with 2 mg/ml casein (Sigma Aldrich). […] In case of MMP-13 p-aminophenylmercuric acetate (APMA) was used for enzyme activation at 37° C. for 30 min. After electrophoresis, gels were washed in 2.5% Triton-X 100 with agitation and then incubated for 20 hrs at 37° C. in enzyme incubation buffer (50 mM Tris-HCl, pH 7.5, containing 5 mM CaCl2, 200 mM NaCl) with or without MMP inhibitor. Zymographic gels were stained in Coomassie Brilliant Blue R-250 and de-stained. Gelatin and casein zymograms were scanned. MMP activity is detected as a white zone on a blue background and the clear bands in the gel can be quantified by densitometry. The obtained density values were measured and % inhibition values calculated (Kupai et al., 2010). The table below summarizes the prescreen inhibition values determined for different MMP inhibitors on MMP1, -2, -9, -13.

MMP13 [2] = molecular target: T1, MMP13 (Homo sapiens (Human), UniProt P45452); test: MMP activity assay (fluorogenic substrate), MMP13 catalytic domain; format: biochemical; conditions: Table 2; read-out: MMP13 IC50
Experimental: (§3) MMP activity assays were conducted as follows: MMP2, MMP9, MMP13 catalytic domain was expressed in E. coli in form of inclusion bodies followed by refolding and purification.
(§4) The Protocol of the Activity Assay:
Stock solution of substrate (Mca-Lys-Pro-Leu-Gly-Leu-Dpa-Ala-Arg-NH2) was prepared in DMSO at a concentration of 6 mM. Assays were performed in an assay buffer (50 mM Tris pH 7.5, 300 mM NaCl, 10 μM ZnSO4, 5 mM CaCl2, 0.005% Brij-35). The final DMSO concentration in all assays was 1.0%. […] The assays were carried out at 37° C. […] The reaction mixtures were preincubated with the inhibitors for 30 minutes. The reactions were started by the addition of MMP substrate, and the fluorescence intensity changes were measured after 60 minutes. The obtained fluorescence values were normalized and % inhibition values calculated. Dose response curves were determined from 6 concentration points using three fold dilution steps, each concentration point was determined in duplicate. IC50 values were calculated from the dose response curves.

MMP1 [3] = molecular target: T2, MMP1 (Homo sapiens (Human), UniProt P03956); test: MMP activity assay (fluorogenic substrate), MMP1; format: biochemical; conditions: Table 2; read-out: MM1 IC50
Target sequence in this assay (P03956 100-469, species assumed): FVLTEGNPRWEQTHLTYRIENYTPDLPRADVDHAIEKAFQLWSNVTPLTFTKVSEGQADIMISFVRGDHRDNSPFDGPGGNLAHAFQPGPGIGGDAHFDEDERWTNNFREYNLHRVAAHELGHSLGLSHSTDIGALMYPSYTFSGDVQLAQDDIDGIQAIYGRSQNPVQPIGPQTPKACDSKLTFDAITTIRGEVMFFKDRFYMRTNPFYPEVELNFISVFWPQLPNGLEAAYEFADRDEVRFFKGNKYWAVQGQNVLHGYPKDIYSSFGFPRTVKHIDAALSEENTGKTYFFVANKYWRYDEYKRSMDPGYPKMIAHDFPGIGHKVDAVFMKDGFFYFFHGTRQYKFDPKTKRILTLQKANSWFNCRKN

isolated rat hearts = test: Myocardial ischemia/reperfusion injury in isolated rat hearts (Langendorff), infarct size; format: ex vivo; conditions: 5 μM final concentration; isolated rat hearts, 30 min global ischemia, 120 min reperfusion
Experimental: Male Wistar rats were anesthetized with diethyl ether, heparin (500 U/kg i.v.) was administered and hearts were isolated. The hearts were assigned to three groups: (i) DMSO control and (ii) Compound 1 (1 μM) and (iii) Compound 1 (10 μM) treated. Stock solution of inhibitors was prepared in DMSO. The final DMSO concentration in all assays was 0.1%. Hearts were perfused in Langendorff mode with constant pressure (100 H2O cm) for 20 min at 37° C. then exposed to global ischemia for 30 min followed by 120 min of reperfusion. The DMSO and inhibitors were dissolved in Krebs-Henseleit buffer and administered only before onset of ischemia for 20 min (pretreatment) and during the first 30 min of reperfusion (FIG. 6). At the end of reperfusion, infarct size (IS) was defined by triphenyltetrazolium chloride staining (Csonka et al., 2010).
In separate experiments hearts were perfused to test cardioprotective effect of ALBH-know compound at 5 μM final concentration. The same protocol was used as mentioned above.

[4] = Cytotoxicity, alamarBlue viability, MRC-5; format: cell-based; conditions: human, MRC-5 fibroblast cells, 48 hours incubation, read-out: MRC-5 LC50
Experimental: as §1

MMP9 = MMP9 (Homo sapiens, UniProt P14780); test: MMP activity assay (fluorogenic substrate), MMP9 catalytic domain; format: biochemical; conditions: Table 2
Experimental: as §3, §4
(§5) Stock solution of substrate (Mca-Lys-Pro-Leu-Gly-Leu-Dpa-Ala-Arg-NH2) was prepared in DMSO at a concentration of 6 mM. Assays were performed in an assay buffer (50 mM Tris pH 7.5, 300 mM NaCl, 10 μM ZnSO4, 5 mM CaCl2, 0.005% Brij-35). The final DMSO concentration in all assays was 1.0%. […] The assays were carried out at 37° C. The fluorescence changes, resulting from the substrate cleavage, were detected using excitation at 340 nm and emission wavelength of 405 nm using a Wallac 1420 Microplate Reader. The reaction mixtures were preincubated with the inhibitors for 30 minutes. The reactions were started by the addition of MMP substrate, and the fluorescence intensity changes were measured after 60 minutes. The obtained fluorescence values were normalized and % inhibition values calculated. Dose response curves were determined from 6 concentration points using three fold dilution steps, each concentration point was determined in duplicate. IC50 values were calculated from the dose response curves.

MMP13 [5] = molecular target: T1, MMP13; test: In vitro zymography assay (gelatin), MMP-13; format: biochemical; conditions: % ± SD; for % inhibition MMP-13 (50 kDa): 1 μM; for inhibition at 100 µM: read-out: % inhibition MMP-13 (50 kDa)
Experimental: as §2

[6] = system: neonatal rat cardiac myocytes; test: Cytoprotective effect in cardiac myocytes subjected to hypoxia and reoxygenation; format: cell-based
Experimental: Neonatal rat hearts were digested and isolated cardiomyocytes were plated onto 24-well plastic plates at […]. The cells were maintained at 37° C. in a humidified atmosphere of 5% CO2 and 95% air in a CO2 incubator until confluence was reached. Cultures at day 3 were used for treatments. Cells were kept under normoxic or simulated ischemic conditions, i.e. the growth medium was changed to a normoxic or hypoxic solution and the cells were incubated under 95% air and 5% CO2 or 95% N2 and 5% CO2 at 37° C. for 4 h, respectively as described in detail (Gorbe A, Giricz Z, Szunyog A, Csont T, Burley D S, Baxter G F, Ferdinandy P. Role of cGMP-PKG signaling in the protection of neonatal rat cardiac myocytes subjected to simulated ischemia/reoxygenation. Basic Res Cardiol. 105:643-650, 2010). The positive control ilomastate (0.5 microM) and MMP-inhibitors at different effective concentrations (EC 5, EC 10, EC 20, and EC50 as determined in previous test examples) were applied during normoxia or simulated ischemia and also during reoxygenation. The vehicle was DMSO. Cell viability was determined after Calcein A M fluorescent staining as described (Karliner J S, Honbo N, Summers K, Gray M O, Goetzl E J. The lysophospholipids sphingosine-1-phosphate and lysophosphatidic acid enhance survival during hypoxia in neonatal rat cardiac myocytes. J Mol Cell Cardiol, 33:1713-7, 2001). Total cell count was determined after digitonin treatment to permeabilize the cells by using propidium iodine fluorescent staining (Roy S S, Hajnoczky G. Calcium, mitochondria and apoptosis studied by fluorescence measurements. Methods. 46:213-223, 2008).

MMP2 = MMP2 (Homo sapiens, UniProt P08253); test: MMP activity assay (fluorogenic substrate), MMP2 catalytic domain; format: biochemical; conditions: Table 2; read-out: MMP2 IC50
Experimental: as §3, §4, §5

[7] = system: human colon tumor cell line HCT116; test: Cytotoxicity, alamarBlue viability, HCT116; format: cell-based; conditions: 48 hours incubation, read-out: HCT116 LC50
Experimental: as §1

[8] = system: healthy human fibroblast cell line MRC-5; test: Cytotoxicity, alamarBlue viability, MRC-5; format: cell-based; conditions: 48 hours incubation, read-out: MRC-5 LC50
Experimental: as §1

MMP1 [9] = molecular target: T2, MMP1; test: In vitro zymography assay (casein), MMP-1; format: biochemical; conditions: % ± SD
Experimental: as §2
Target sequence in this assay (P03956 100-469): as the sequence (P03956 100-469, species assumed) above

[10] = % ± SD, read-out: % inhibition MMP-2 (72 kDa)

Sequence of MMP-2 (P33436 110-662): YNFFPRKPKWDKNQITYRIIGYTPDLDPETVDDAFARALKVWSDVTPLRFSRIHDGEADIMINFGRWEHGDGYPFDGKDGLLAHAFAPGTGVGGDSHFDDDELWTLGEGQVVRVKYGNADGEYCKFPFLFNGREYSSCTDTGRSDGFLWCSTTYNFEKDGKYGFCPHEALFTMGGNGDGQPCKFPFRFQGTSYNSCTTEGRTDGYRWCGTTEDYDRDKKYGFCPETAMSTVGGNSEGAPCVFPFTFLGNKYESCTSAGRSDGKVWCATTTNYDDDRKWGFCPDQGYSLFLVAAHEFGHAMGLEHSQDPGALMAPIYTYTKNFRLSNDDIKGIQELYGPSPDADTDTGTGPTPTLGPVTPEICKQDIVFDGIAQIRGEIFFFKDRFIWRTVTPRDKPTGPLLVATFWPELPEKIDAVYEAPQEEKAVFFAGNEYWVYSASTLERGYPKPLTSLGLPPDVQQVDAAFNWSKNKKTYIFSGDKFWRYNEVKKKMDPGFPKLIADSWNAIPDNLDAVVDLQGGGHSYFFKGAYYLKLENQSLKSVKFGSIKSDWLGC

% inhibition MMP-2 (72 kDa) (MMP-2; 1 μM, % ± SD)	inhibition at 100 µM (MMP-2; [10])	IC50 (MMP13 [2])	IC50 (MMP1 [3])	IC50 (MMP9)	IC50 (MMP2)	SMILES	CC50 at 48 h [1]	CC50 at 48 h [4]	also measured
No inhibition	100%	1.62 µM	3.6 µM	15 µM	–	O=C(O)c1csc(CN(Cc2ccc(F)cc2)Cc2ccc(OCc3ccccc3)cc2)n1 [ALBH-known, 2-[({[4-(benzyloxy)phenyl]methyl}[(4-fluorophenyl)methyl]amino)methyl]-1,3-thiazole-4-carboxylic acid, reference compound]	3.5 µM	33 µM	reduction of myocardial IS as compared to vehicle (isolated rat hearts): 72.01±4.96%
–	–	1.5 µM	> 500 µM	> 500 µM	> 500 µM	O=C(O)c1csc(CN(Cc2ccc(OCc3cccnc3)cc2)Cc2cccnc2)n1 [Compound 10, 2-[({[4-(Pyridin-3-ylmethoxy)phenyl]methyl}(pyridin-3-ylmethyl)amino)methyl]-1,3-thiazole-4-carboxylic acid]	20 µM	20 µM	% inhibition MMP-13 (50 kDa) (MMP13 [5]): No inhibition; inhibition at 100 µM (MMP13 [5]): 53.6 ± 18.9%; Cytoprotective effect, % cell survival as compared to vehicle DMSO ([6]; normoxia, EC5 concentration 0.3 microM): 112 ± 3 %; Cytoprotective effect, % cell survival as compared to vehicle DMSO ([6]; normoxia, EC10 concentration 1.0 microM): 112 ± 1 %; Cytoprotective effect, % cell survival as compared to vehicle DMSO ([6]; normoxia, EC20 concentration 3.0 microM): 115 ± 3 %; Cytoprotective effect, % cell survival as compared to vehicle DMSO ([6]; normoxia, EC50 concentration 9.0 microM): 108 ± 1%; Cytoprotective effect, % cell survival as compared to vehicle DMSO ([6]; simulated ischemia, EC5 concentration 0.3 microM): 117 ± 2 %; Cytoprotective effect, % cell survival as compared to vehicle DMSO ([6]; simulated ischemia, EC10 concentration 1.0 microM): 119 ± 2 %; Cytoprotective effect, % cell survival as compared to vehicle DMSO ([6]; simulated ischemia, EC20 concentration 3.0 microM): 123 ± 6 %; Cytoprotective effect, % cell survival as compared to vehicle DMSO ([6]; simulated ischemia, EC50 concentration 9.0 microM): 136 ± 2 %
–	4.78 ± 7.18%	8.5 µM	> 500 µM	> 500 µM	> 500 µM	O=C(O)c1csc(CN(Cc2ccc(OCc3ccncc3)cc2)Cc2cccnc2)n1 [Compound 12, 2-{[(Pyridin-3-ylmethyl)({[4-(pyridin-4-ylmethoxy)phenyl]methyl})amino]methyl}-1,3-thiazole-4-carboxylic acid]	37 µM	90 µM	inhibition at 1 µM (MMP-2; 1 μM, % ± SD, read-out: % inhibition MMP-2 (72 kDa)): 5.59 ± 11.8%
No nhibiton	100%	8 µM	240 µM	> 500 µM	90 µM	O=C(O)c1csc(CN(Cc2ccc(OCc3ccccc3)cc2)Cc2cccnc2)n1 [Compound 14, 2-[({[4-(Benzyloxy)phenyl]methyl}(pyridin-3-ylmethyl)amino)methyl]-1,3-thiazole-4-carboxylic acid]	19 µM	42 µM	–
–	–	0.28 µM	16 µM	8 µM	35 µM	O=C(O)c1c[nH]c(CN(Cc2ccc(F)cc2)Cc2ccc(OC(c3ccccc3)c3ccccc3)cc2)n1 [Compound 22, 2-[({[4-(Diphenylmethoxy)phenyl]methyl}[(4-fluorophenyl)methyl]amino)methyl]-1H-imidazole-4-carboxylic acid]	0.7 µM	2 µM	% inhibition MMP-13 (50 kDa) (MMP13 [5]): No inhibition; inhibition at 100 µM (MMP13 [5]): 71.7 ± 4.49%
–	–	3.3 µM	33 µM	100 µM	15 µM	O=C(O)c1c[nH]c(CN(Cc2ccc(F)cc2)Cc2ccc(OCc3ccccc3)cc2)n1 [Compound 30 HCl, 2-[({[4-(Benzyloxy)phenyl]methyl}[(4-fluorophenyl)methyl]amino)methyl]-1H-imidazole-4-carboxylic acid]	–	–	CC50 [7]: 5.6 µM; CC50 [8]: 15 µM
No inhibition	100%	1.76 µM	3.9 µM	13 µM	6.6 µM	O=C(O)c1c[nH]c(CN(Cc2ccc(F)cc2)Cc2ccc(OCc3ccccc3)cc2)n1 [Compound 30, 2-[({[4-(Benzyloxy)phenyl]methyl}[(4-fluorophenyl)methyl]amino)methyl]-1H-imidazole-4-carboxylic acid]	6 µM	30 µM	% inhibition MMP-1 (52 kDa) (MMP1 [9]; 1 μM): No inhibition; % inhibition MMP-1 (55 kDa) (MMP1 [9]; 1 μM): No inhibition; inhibition at 100 µM (MMP1 [9]; read-out: % inhibition MMP-1 (52 kDa)): 63.4 ± 18.3%; inhibition at 100 µM (MMP1 [9]; read-out: % inhibition MMP-1 (55 kDa)): 61.1 ± 6.78%; IC50 (MMP-2; zymography, Table 8, read-out: IC50 on MMP-2): 0.081 µM
